Experimental data as given in patent publication US9670227B2, “Thienopyrimidine derivatives, a process for their preparation and pharmaceutical compositions containing them” (LES LABORATOIRES SERVIER, priority 2013, dated 2017).
Read-outs that look alike come from different tables or passages of the source.

Tests used:
[1] = tested on: H929 multiple myeloma tumour line; assay: In vitro cytotoxicity, Microculture Tetrazolium Assay; assay type: cell-based; conditions: H929 cells, 48 hours exposure, MTT, read-out: IC50 (μM) MTT H929
Experimental: The cytotoxicity studies were carried out on the H929 multiple myeloma tumour line.
The cells are distributed onto microplates and exposed to the test compounds for 48 hours.

[2] = biological target: Mcl-1 protein (UniProtKB primary accession number: Q07820) (Homo sapiens, UniProt Q07820); assay: Inhibition of Mcl-1 by fluorescence polarisation, Method 1; assay type: binding; conditions: read-out: IC50 (M) Mcl-1 FP
Summary of the method: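 Compounds were tested as 11-point serial dilutions at 5% final DMSO against 5 nM Mcl-1 with 1 nM fluorescein-labelled ligand in 10 mM HEPES, 150 mM NaCl, 0.05% Tween 20, pH 7.4. Relative binding potency was read by fluorescence polarisation.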

[3] = fluorescence polarisation, Method 1, or Method 2
[4] = fluorescence polarisation test, Method 2 values are underlined in the patent (underlining not visible here)

Sequence of Mcl-1 protein (Q07820 whole entry): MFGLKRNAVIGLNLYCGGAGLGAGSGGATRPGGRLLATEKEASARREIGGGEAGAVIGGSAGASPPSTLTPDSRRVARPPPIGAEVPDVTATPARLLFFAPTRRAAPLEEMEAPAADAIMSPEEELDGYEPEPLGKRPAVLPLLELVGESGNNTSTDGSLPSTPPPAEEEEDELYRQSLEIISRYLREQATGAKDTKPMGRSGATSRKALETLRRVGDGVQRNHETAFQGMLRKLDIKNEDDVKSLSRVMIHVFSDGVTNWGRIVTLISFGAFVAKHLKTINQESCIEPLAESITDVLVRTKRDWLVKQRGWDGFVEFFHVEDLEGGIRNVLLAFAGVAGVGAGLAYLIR

Row | SMILES | IC50 [2, 3] [M] | IC50 [2, 4] [M] | IC50 ([1]; Homo sapiens, NCI-H929, 48 h) [µM] | IC50 [1] [µM]
1 | Cc1c(-c2c(-c3ccc(OCC(F)(F)F)nc3)sc3ncnc(OC(Cc4ccccc4OCc4ccnn4CC(F)(F)F)C(=O)O)c23)ccc(OCCN2CCN(C)CC2)c1Cl [Example 695, (2R)-2-[((5Sa)-5-{3-chloro-2-methyl-4-[2-(4-methylpiperazin-1-yl)ethoxy]phenyl}-6-[6-(2,2,2-trifluoroethoxy)pyridin-3-yl]thieno[2,3-d]pyrimidin-4-yl)oxy]-3-(2-{[1-(2,2,2-trifluoroethyl)-1H-pyrazol-5-yl]methoxy}phenyl)propanoic acid] | 1.6e-08 | – | 0.268 | –
2 | Cc1c(-c2c(-c3ccco3)sc3ncnc(OC(Cc4ccccc4OCc4ccnn4C)C(=O)O)c23)ccc(OCCN(C)C)c1Cl [Example 668, (2R)-2-{[(5Sa)-5-{3-chloro-4-[2-(dimethylamino)ethoxy]-2-methylphenyl}-6-(furan-2-yl)thieno[2,3-d]pyrimidin-4-yl]oxy}-3-{2-[(1-methyl-1H-pyrazol-5-yl)methoxy]phenyl}propanoic acid] | 1.1e-08 | – | 0.13 | –
3 | COCCn1nccc1COc1ccccc1CC(Oc1ncnc2sc(-c3ccc(F)cc3)c(-c3ccc(OCCN4CCN(C)CC4)c(Cl)c3C)c12)C(=O)O [Example 88, (2R)-2-{[(5Sa)-5-{3-chloro-2-methyl-4-[2-(4-methylpiperazin-1-yl)ethoxy]phenyl}-6-(4-fluorophenyl)thieno[2,3-d]pyrimidin-4-yl]oxy}-3-(2-{[1-(2-methoxyethyl)-1H-pyrazol-5-yl]methoxy}phenyl)propanoic acid] | – | 4.2e-09 | 0.062 | –
4 | Cc1c(-c2c(-c3ccc(F)o3)sc3ncnc(OC(Cc4ccccc4OCc4ccnc(OCC(F)(F)F)n4)C(=O)O)c23)ccc(OCCN2CCN(C)CC2)c1Cl [Example 178, (2R)-2-{[(5Sa)-5-{3-chloro-2-methyl-4-[2-(4-methylpiperazin-1-yl)ethoxy]phenyl}-6-(5-fluorofuran-2-yl)thieno[2,3-d]pyrimidin-4-yl]oxy}-3-(2-{[2-(2,2,2-trifluoroethoxy)pyrimidin-4-yl]methoxy}phenyl)propanoic acid] | – | 6.3e-09 | 0.002 | –
5 | Cc1c(-c2c(-c3ccc(F)o3)sc3ncnc(OC(Cc4ccccc4OCc4ccnn4C4CCCC4)C(=O)O)c23)ccc(OCCN2CCN(C)CC2)c1Cl [Example 183, (2R)-2-{[(5Sa)-5-{3-chloro-2-methyl-4-[2-(4-methylpiperazin-1-yl)ethoxy]phenyl}-6-(5-fluorofuran-2-yl)thieno[2,3-d]pyrimidin-4-yl]oxy}-3-{2-[(1-cyclopentyl-1H-pyrazol-5-yl)methoxy]phenyl}propanoic acid] | – | 5.7e-09 | 0.012 | –
6 | Cc1c(-c2c(-c3ccco3)sc3ncnc(OC(Cc4ccccc4OCc4cccnn4)C(=O)O)c23)ccc(OCCN2CCN(C)CC2)c1Cl [Example 243, (2R)-2-{[(5Sa)-5-{3-chloro-2-methyl-4-[2-(4-methylpiperazin-1-yl)ethoxy]phenyl}-6-(furan-2-yl)thieno[2,3-d]pyrimidin-4-yl]oxy}-3-[2-(pyridazin-3-ylmethoxy)phenyl]propanoic acid] | – | 5.6e-09 | 0.211 | –
7 | CCCOc1nccc(COc2ccccc2CC(Oc2ncnc3sc(-c4ccc(F)cc4)c(-c4ccc(OCCN5CCN(C)CC5)c(Cl)c4C)c23)C(=O)O)n1 [Example 61, (2R)-2-{[(5Sa)-5-{3-chloro-2-methyl-4-[2-(4-methylpiperazin-1-yl)ethoxy]phenyl}-6-(4-fluorophenyl)thieno[2,3-d]pyrimidin-4-yl]oxy}-3-{2-[(2-propoxypyrimidin-4-yl)methoxy]phenyl}propanoic acid] | – | 6.7e-09 | 0.01 | –
8 | CCc1sc2ncnc(OC(Cc3ccccc3)C(=O)O)c2c1-c1ccc(OCCCN2CCN(C)CC2)c(Cl)c1C [Example 402, (2R)-2-[((5Sa)-5-{3-chloro-2-methyl-4-[3-(4-methylpiperazin-1-yl)propoxy]phenyl}-6-ethylthieno[2,3-d]pyrimidin-4-yl)oxy]-3-phenylpropanoic acid] | 6.6e-08 | – | 10.4 | –
9 | Cc1c(-c2c(-c3ccc(Cl)o3)sc3ncnc(OC(Cc4ccccc4OCc4ccnn4CC(F)(F)F)C(=O)O)c23)ccc(OCCN2CCN(C)CC2)c1Cl [Example 373, (2R)-2-{[6-(5-chlorofuran-2-yl)-(5Sa)-5-{3-chloro-2-methyl-4-[2-(4-methylpiperazin-1-yl)ethoxy]phenyl}thieno[2,3-d]pyrimidin-4-yl]oxy}-3-(2-{[1-(2,2,2-trifluoroethyl)-1H-pyrazol-5-yl]methoxy}phenyl)propanoic acid] | – | 4.6e-09 | 0.012 | –
10 | COc1ccccc1CC(Oc1ncnc2sc(-c3cccc(OCc4ccncc4)c3)c(-c3ccc(OCCN4CCN(C)CC4)c(Cl)c3C)c12)C(=O)O [Example 587, (2R)-2-[((5Sa)-5-{3-chloro-2-methyl-4-[2-(4-methylpiperazin-1-yl)ethoxy]phenyl}-6-[3-(pyridin-4-ylmethoxy)phenyl]thieno[2,3-d]pyrimidin-4-yl)oxy]-3-(2-methoxyphenyl)propanoic acid] | 2.6e-08 | – | 0.539 | –
11 | Cc1c(-c2c(-c3ccc(F)cc3)sc3ncnc(OC(Cc4ccccc4OCc4cnccn4)C(=O)O)c23)ccc(OCCN(C)C)c1Cl [Example 134, (2R)-2-{[(5Sa)-5-{3-chloro-4-[2-(dimethylamino)ethoxy]-2-methylphenyl}-6-(4-fluorophenyl)thieno[2,3-d]pyrimidin-4-yl]oxy}-3-[2-(pyrazin-2-ylmethoxy)phenyl]propanoic acid] | – | 1.3e-08 | 0.193 | –
12 | CCCCn1nccc1COc1ccccc1CC(Oc1ncnc2sc(-c3ccc(F)nc3)c(-c3ccc(OCCN4CCN(C)CC4)c(Cl)c3C)c12)C(=O)O [Example 607, (2R)-3-{2-[(1-butyl-1H-pyrazol-5-yl)methoxy]phenyl}-2-{[(5Sa)-5-{3-chloro-2-methyl-4-[2-(4-methylpiperazin-1-yl)ethoxy]phenyl}-6-(6-fluoropyridin-3-yl)thieno[2,3-d]pyrimidin-4-yl]oxy}propanoic acid] | 3.5e-09 | – | 0.04 | –
13 | COc1ccccc1-c1nccc(COc2ccccc2CC(Oc2ncnc3sc(-c4ccc(F)cc4)c(-c4ccc(OCCN5CCNCC5)c(Cl)c4C)c23)C(=O)O)n1 [Example 744, (2R)-2-{[(5Sa)-5-{3-chloro-2-methyl-4-[2-(piperazin-1-yl)ethoxy]phenyl}-6-(4-fluorophenyl)thieno[2,3-d]pyrimidin-4-yl]oxy}-3-(2-{[2-(2-methoxyphenyl)pyrimidin-4-yl]methoxy}phenyl)propanoic acid] | 9.48e-10 | – | 0.042 | –

More lines, main results first:

Row | IC50 [2, 3] [M] | IC50 [2, 4] [M] | SMILES | IC50 ([1]; Homo sapiens, NCI-H929, 48 h) [µM] | IC50 [1] [µM]
14 | 7.7e-08 | – | COc1ccccc1C[C@@H](Oc1ncnc2sc(-c3ccc(F)c(Cl)c3F)c(-c3ccc(OCCN4CCN(C)CC4)c(Cl)c3C)c12)C(=O)O [Example 536, (2R)-2-{[6-(3-chloro-2,4-difluorophenyl)-(5Sa)-5-{3-chloro-2-methyl-4-[2-(4-methylpiperazin-1-yl)ethoxy]phenyl}thieno[2,3-d]pyrimidin-4-yl]oxy}-3-(2-methoxyphenyl)propanoic acid] | – | 0.797
15 | 4.8e-07 | – | COc1ccccc1CC(Oc1ncnc2sc(-c3ccccc3Cl)c(-c3ccc(OCCN4CCN(C)CC4)c(Cl)c3C)c12)C(=O)O [Example 565, (2R)-2-{[(5Sa)-5-{3-chloro-2-methyl-4-[2-(4-methylpiperazin-1-yl)ethoxy]phenyl}-6-(2-chlorophenyl)thieno[2,3-d]pyrimidin-4-yl]oxy}-3-(2-methoxyphenyl)propanoic acid] | 1.96 | –
16 | – | 8e-09 | CCOc1ccccc1CC(Oc1ncnc2sc(-c3ccco3)c(-c3ccc(OCCN4CCN(C)CC4)c(Cl)c3C)c12)C(=O)O [Example 215, (2R)-2-{[(5Sa)-5-{3-chloro-2-methyl-4-[2-(4-methylpiperazin-1-yl)ethoxy]phenyl}-6-(furan-2-yl)thieno[2,3-d]pyrimidin-4-yl]oxy}-3-(2-ethoxyphenyl)propanoic acid] | 0.203 | –
17 | – | 9e-09 | Cc1c(-c2c(-c3ccco3)sc3ncnc(OC(Cc4ccccc4OCc4ccc(F)cn4)C(=O)O)c23)ccc(OCCN2CCN(C)CC2)c1Cl [Example 232, (2R)-2-{[(5Sa)-5-{3-chloro-2-methyl-4-[2-(4-methylpiperazin-1-yl)ethoxy]phenyl}-6-(furan-2-yl)thieno[2,3-d]pyrimidin-4-yl]oxy}-3-{2-[(5-fluoropyridin-2-yl)methoxy]phenyl}propanoic acid] | 0.046 | –
18 | 2.9e-08 | – | C=Cc1ccc(-c2sc3ncnc(OC(Cc4ccccc4OC)C(=O)O)c3c2-c2ccc(OCCN3CCN(C)CC3)c(Cl)c2C)o1 [Example 584, (2R)-2-{[(5Sa)-5-{3-chloro-2-methyl-4-[2-(4-methylpiperazin-1-yl)ethoxy]phenyl}-6-(5-ethenylfuran-2-yl)thieno[2,3-d]pyrimidin-4-yl]oxy}-3-(2-methoxyphenyl)propanoic acid] | 0.902 | –
19 | – | 4e-09 | Cc1c(-c2c(-c3ccco3)sc3ncnc(OC(Cc4ccccc4OCc4cocn4)C(=O)O)c23)ccc(OCCN2CCN(C)CC2)c1Cl [Example 280, (2R)-2-{[(5Sa)-5-{3-chloro-2-methyl-4-[2-(4-methylpiperazin-1-yl)ethoxy]phenyl}-6-(furan-2-yl)thieno[2,3-d]pyrimidin-4-yl]oxy}-3-[2-(1,3-oxazol-4-ylmethoxy)phenyl]propanoic acid] | 0.071 | –
20 | 6.2e-08 | – | COc1ccccc1CC(Oc1ncnc2sc(C(C)(F)F)c(-c3ccc(OCCN4CCN(C)CC4)c(Cl)c3C)c12)C(=O)O [Example 576, (2R)-2-{[(5Sa)-5-{3-chloro-2-methyl-4-[2-(4-methylpiperazin-1-yl)ethoxy]phenyl}-6-(1,1-difluoroethyl)thieno[2,3-d]pyrimidin-4-yl]oxy}-3-(2-methoxyphenyl)propanoic acid] | 1.51 | –
